The values that follow come from patent US8735406B2, “8-oxodihydropurine derivative” (Dainippon Sumitomo Pharma Co., Ltd., priority 2009, dated 2014).

As usually defined, the inhibition is the relative decrease from the control value, in per cent. As a reminder, the IC50 is the concentration needed to halve the response being measured.

The assay concerns the target T1, FAAH (Rattus norvegicus, UniProt P97612).
T1 construct: Preparation of Rat Brain Membranes Preparations (FAAH Enzyme Solution); from tissue; host or cells: rat cerebrum (brain membrane preparation)
T1 sequence (P97612 1-579): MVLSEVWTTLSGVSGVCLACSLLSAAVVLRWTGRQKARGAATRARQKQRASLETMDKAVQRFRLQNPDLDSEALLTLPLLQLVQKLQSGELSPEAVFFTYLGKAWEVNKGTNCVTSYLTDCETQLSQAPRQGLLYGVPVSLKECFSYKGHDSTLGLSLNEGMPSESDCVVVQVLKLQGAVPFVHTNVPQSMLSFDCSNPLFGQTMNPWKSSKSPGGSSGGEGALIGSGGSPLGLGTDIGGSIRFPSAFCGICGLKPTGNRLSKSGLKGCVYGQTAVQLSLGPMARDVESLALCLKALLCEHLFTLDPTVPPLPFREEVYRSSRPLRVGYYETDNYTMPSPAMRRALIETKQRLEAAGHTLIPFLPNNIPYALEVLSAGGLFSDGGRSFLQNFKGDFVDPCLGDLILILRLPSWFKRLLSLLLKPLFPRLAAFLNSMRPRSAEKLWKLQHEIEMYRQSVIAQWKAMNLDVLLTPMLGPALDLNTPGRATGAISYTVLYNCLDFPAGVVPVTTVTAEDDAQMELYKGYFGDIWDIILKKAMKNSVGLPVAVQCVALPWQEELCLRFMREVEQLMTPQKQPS
The experiment in a line: Determination of FAAH inhibitory activity in rat (rat brain membrane preparations, [3H]-anandamide hydrolysis). To be noted: rat brain membrane preparations; for inhibition at 0.1 µM: 100 nM test substance, read-out: FAAH Inhibition, Inhibition Rate at 100 nM; for IC50: test substance 0.1 nM to 1 μM, read-out: FAAH Inhibition IC50. The class given is biochemical. In outline:
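Rat cerebrum membranes (100 μg/mL protein) preincubated 10 min at 37 °C with compound (1% DMSO) in pH 7.6 Tris buffer with 1.5% BSA. Substrate 2 nM [3H]-anandamide plus 2 μM anandamide added for 10 min at 37 °C. [3H]-ethanolamine in the aqueous phase after chloroform/methanol extraction was scintillation counted; IC50 over 0.1 nM–1 μM.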

Regarding `Cn1c(=O)n(C(=O)N2CCCC2)c2nc(CCc3ccc(C(F)(F)F)cc3)ncc21` [Example 312, 7-methyl-9-(pyrrolidin-1-ylcarbonyl)-2-{2-[4-(trifluoromethyl)phenyl]ethyl}-7,9-dihydro-8H-purine-8-one], the inhibition at 0.1 µM was 99% and the IC50 was determined as 0.008 µM.
Turning to `Cn1c(=O)n(C(=O)N2CCCC2)c2nc(CCc3cccc(C(F)(F)F)c3)ncc21` [Example 313, 7-Methyl-9-(pyrrolidin-1-ylcarbonyl)-2-{2-[3-(trifluoromethyl)phenyl]ethyl}-7,9-dihydro-8H-purine-8-one], the inhibition at 0.1 µM stood at 103% and the IC50 came to 0.011 µM.
The corresponding values for `Cn1c(=O)n(C(=O)N2CCCC2)c2nc(CCc3ccc(F)cc3)ncc21` [Example 314, 2-[2-(4-Fluorophenyl)ethyl]-7-methyl-9-(pyrrolidin-1-ylcarbonyl)-7,9-dihydro-8H-purine-8-one] are 100% and 0.037 µM.
For `Cn1c(=O)n(C(=O)N2CCCC2)c2nc(CCc3cccc(F)c3)ncc21` [Example 315, 2-[2-(3-Fluorophenyl)ethyl]-7-methyl-9-(pyrrolidin-1-ylcarbonyl)-7,9-dihydro-8H-purine-8-one], the inhibition at 0.1 µM was found to be 95% and the IC50 was found to be 0.019 µM.
For the compound `Cn1c(=O)n(C(=O)N2CCCC2)c2cnc(C3CCCCC3)nc21` [Example 316, 2-cyclohexy-9-methyl-7-(pyrrolidin-1-ylcarbonyl)-7,9-dihydro-8H-purine-8-one], the inhibition at 0.1 µM came out at 80% and the IC50 was found to be 0.055 µM.
For `Cn1c(=O)n(C(=O)N2CCCC2)c2cnc(-c3cccc(N)c3)nc21` [Example 317, 2-(3-aminophenyl)-9-methyl-7-(pyrrolidin-1-ylcarbonyl)-7,9-dihydro-8H-purine-8-one], the inhibition at 0.1 µM stood at 103% and the IC50 is less than 0.01 µM.
Regarding `COc1cccc(-c2ncc3c(n2)n(C(=O)N(C)C)c(=O)n3C)c1` [Example 322, 2-(3-Methoxyphenyl)-N,N,7-trimethyl-8-oxo-7,8-dihydro-9H-purine-9-carboxamide], the inhibition at 0.1 µM turned out to be 45%.
Take `CN(C)C(=O)n1c(=O)n(C)c2cnc(-c3ccc(C(F)(F)F)cc3)nc21` [Example 326, N,N,7-Trimethyl-8-oxo-2-[4-(trifluoromethyl)phenyl]-7,8-dihydro-9H-purine-9-carboxamide]: the inhibition at 0.1 µM was found to be 83% and the IC50 is 0.052 µM.
On to `CN(C)C(=O)n1c(=O)n(C)c2cnc(-c3ccc(C(F)F)cc3)nc21` [Example 330, 2-[4-(Difluoromethyl)phenyl]-N,N,7-trimethyl-8-oxo-7,8-dihydro-9H-purine-9-carboxamide], for which the inhibition at 0.1 µM stood at 62% and the IC50 was found to be 0.095 µM.
For `CN(C)C(=O)n1c(=O)n(C)c2cnc(-c3cccc(OC(F)F)c3)nc21` [Example 331, 2-[3-(Difluoromethoxy)phenyl]-N,N,7-trimethyl-8-oxo-7,8-dihydro-9H-purine-9-carboxamide], the inhibition at 0.1 µM is 77% and the IC50 was 0.033 µM.
Consider `CN(C)C(=O)n1c(=O)n(C)c2cnc(-c3cccc(C(F)F)c3)nc21` [Example 332, 2-[3-(Difluoromethyl)phenyl]-N,N,7-trimethyl-8-oxo-7,8-dihydro-9H-purine-9-carboxamide], for which the inhibition at 0.1 µM turned out to be 78% and the IC50 stood at 0.038 µM.
Turning to `CN(C)C(=O)n1c(=O)n(C)c2cnc(-c3ccc(OCC(F)(F)F)cc3)nc21` [Example 334, N,N,7-Trimethyl-8-oxo-2-[4-(2,2,2-trifluoroethoxy)phenyl]-7,8-dihydro-9H-purine-9-carboxamide], the inhibition at 0.1 µM came to 88% and the IC50 amounted to 0.025 µM.
The corresponding values for `CN(C)C(=O)n1c(=O)n(C)c2cnc(-c3cccc(OCC(F)F)c3)nc21` [Example 335, 2-[3-(2,2-Difluoroethoxy)phenyl]-N,N,7-trimethyl-8-oxo-7,8-dihydro-9H-purine-9-carboxamide] are 74% and 0.033 µM.
